“Also recorded” adds a separate entry of the source. Counter-ions that a name gives are not always drawn. Like-named read-outs stand apart in the source and are kept apart here.
Experiments:
Assay type in all cases: biochemical
[1] = biological target: T1, Acinetobacter baumannii rAcpA (Acinetobacter baumannii, UniProt A0ABX6CG12); test: biochemical
[2] = biological target: T1, Acinetobacter baumannii rAcpA; test: Hydrolysis of various phosphorylated compounds by rAcpA (released phosphate); settings: phosphate released relative to paranitrophenol released from PNPP x100
Experimental: All incubations were carried out for 30 minutes at 37 °C after which time reactions were placed in an ice slurry for 3 minutes followed by addition of enzyme to the respective blanks and reactions were terminated by heating at 65 °C for 10 minutes followed by immersion in an ice slurry for 3 minutes. Released phosphate was determined by addition of 1.0 mL BIOMOL GREEN phosphate reagent (Enzo Life Sciences), and monitored at 620 nm using a Genesys 10 UV Scanning Spectrophotometer (Thermo Scientific). Paranitrophenol was monitored at 405 nm following addition of 1.7 mL 0.5 M Glycine buffer, pH 10. Following subtraction of blank values, paranitrophenol and released phosphate were quantitated using paranitrophenol and phosphate standard curves, respectively. […] Specific activity is expressed as nmoles paranitrophenol or free phosphate liberated mg^-1s^-1.

[3] = biological target: T1, Acinetobacter baumannii rAcpA
[4] = biological target: T1, Acinetobacter baumannii rAcpA; test: rAcpA enzymatic kinetics with PNPP (Lineweaver-Burk)
Experimental: Unless indicated otherwise, reaction mixtures contained 2.0 mM PNPP (Sigma Chemical Co.) or phosphorylated compounds (Sigma Chemical Co.), 0.20 M MES (Sigma Chemical Co.) buffer, pH 6.0, 2.0 mM NiCl2, and 0.080–0.30 μg total Acinetobacter baumannii rAcpA protein, and were brought to a final concentration of 0.186 μg/μL protein with addition of bovine serum albumin (BSA, BioRad Laboratories) in a total reaction volume of 200 μL (determination of released phosphate) or 300 μL (determination of released paranitrophenol). All incubations were carried out for 30 minutes at 37 °C after which time reactions were placed in an ice slurry for 3 minutes followed by addition of enzyme to the respective blanks and reactions were terminated by heating at 65 °C for 10 minutes followed by immersion in an ice slurry for 3 minutes. Released phosphate was determined by addition of 1.0 mL BIOMOL GREEN phosphate reagent (Enzo Life Sciences), and monitored at 620 nm using a Genesys 10 UV Scanning Spectrophotometer (Thermo Scientific). Paranitrophenol was monitored at 405 nm following addition of 1.7 mL 0.5 M Glycine buffer, pH 10. Following subtraction of blank values, paranitrophenol and released phosphate were quantitated using paranitrophenol and phosphate standard curves, respectively. All reactions, i.e., generation of paranitrophenol and release of free phosphate were linear with both time (30 minutes) and assay protein (0.30 μg, ~ 13.2 nM). Specific activity is expressed as nmoles paranitrophenol or free phosphate liberated mg^-1s^-1.
The effect of increasing PNPP substrate on Acinetobacter baumannii rAcpA activity was determined.
Fig 4 Determination of Km and Vmax. Enzymatic activity (0.149 μg rAcpA) was determined over a broad range of PNPP concentrations (0.10–10.0 mM) in replicates of five for each substrate concentration tested and corresponding blank. Km and Vmax values were derived from standard Lineweaver-Burk plot analysis. Error bars represent 1 standard deviation from the mean.

[5] = compound at 2.0 mM final concentration
[6] = pH 6.0, divalent cation 2 mM final concentration
[7] = compound at 0.1 mM final concentration
[8] = PNPP 0.10–10.0 mM, 0.149 μg rAcpA, Lineweaver-Burk plot

CCCCCCCCCCCCOS(=O)(=O)[O-].[Na+] [Sodium Dodecyl Sulfate]
IC50 ([1]; pH 6, read-out: IC50): 100 µM | IC50 ([1]; read-out: IC50): 100 µM

Cc1ncc(C[n+]2csc(CCOP(=O)(O)O)c2C)c(N)n1 [Thiamine Monophosphate]
Relative Activity [2, 5]: 12.3%

NC(=O)C1=CN([C@@H]2O[C@H](COP(=O)(O)OP(=O)(O)OC[C@H]3O[C@@H](n4cnc5c(N)ncnc54)[C@H](OP(=O)(O)O)[C@@H]3O)[C@@H](O)[C@H]2O)C=CC1 [NADPH]
Relative Activity [2, 5]: 3.5%

O=P(O)(O)O [Sodium Phosphate]
IC50 ([1]; pH 6, read-out: IC50): 9000 µM

[O]=[Mo](=[O])([OH])[OH] [Molybdate]
IC50 ([1]; pH 6, read-out: IC50): 350 µM | IC50 ([1]; read-out: IC50): 350 µM

Nc1nc2c(ncn2[C@@H]2O[C@H](COP(=O)(O)OP(=O)(O)O)[C@@H](O)[C@H]2O)c(=O)[nH]1 [GDP]
Relative Activity [2, 5]: 1.0%

O=P(O)(O)OC[C@H]1O[C@H](O[C@H]2O[C@H](CO)[C@@H](O)[C@H](O)[C@H]2O)[C@H](O)[C@@H](O)[C@@H]1O [Trehalose-6-Phosphate]
Relative Activity [2, 5]: 4.0%

[Cl-].[Cl-].[Zn+2] [ZnCl2]
PNPP hydrolysis as percent of that observed for NiCl2 [3, 6]: 11%

Nc1ccn([C@@H]2O[C@H](COP(=O)(O)O)[C@@H](O)[C@H]2O)c(=O)n1 [CMP]
Relative Activity [2, 5]: 4.1%

O=C(O)CN(CCN(CC(=O)O)CC(=O)O)CC(=O)O [EDTA]
IC50 ([1]; pH 6, read-out: IC50): 1250 µM

O=C(O)C(O)C(O)C(=O)O (centres unmarked) [Sodium Tartrate]
IC50 [1]: 2000 µM

Tween 20
Percent Control [1]: 140% | stimulation of PNPP hydrolysis [1]: ~ 1.4 fold

mercury
PNPP hydrolysis as percent of that observed for NiCl2 [3, 6]: very inhibitory

K-R-pT-I-R-R [Threonine Phosphopeptide]
Relative Activity [2, 7]: 0.0% | Relative Activity ([2]; compound at 0.1 mM final concentration, listed as threonine phosphopeptide): 0%

O[C@@H](CS)[C@@H](O)CS [Dithiothreitol]
IC50 [1]: 3000 µM

O=C[C@H](O)[C@@H](O)[C@H](O)[C@H](O)COP(=O)(O)O [Glucose-6-Phosphate]
Relative Activity [2, 5]: 2.7%

O=C[C@@H](O)[C@@H](O)[C@H](O)[C@H](O)COP(=O)(O)O [Mannose-6-Phosphate]
Relative Activity [2, 5]: 10.6%

CoCl2
PNPP hydrolysis as percent of that observed for NiCl2 ([3]; pH 6): 76%

Nc1ncnc2c1ncn2[C@@H]1O[C@H](COP(=O)(O)OP(=O)(O)OP(=O)(O)O)[C@@H](O)[C@H]1O [ATP]
Relative Activity [2, 5]: 1.1%

C=C1[C@@H](O)[C@@H]2O[C@]3(CC[C@H](/C=C/[C@@H](C)[C@@H]4CC(C)=C[C@@]5(O[C@H](C[C@@](C)(O)C(=O)O)CC[C@H]5O)O4)O3)CC[C@H]2O[C@@H]1[C@@H](O)C[C@H](C)[C@H]1O[C@@]2(CCCCO2)CC[C@H]1C [Okadaic acid]
Percent Control [1]: 100% | sensitivity of rAcpA to compound [1]: insensitive; also recorded: did not inhibit

[F-].[Na+] [Sodium Fluoride]
IC50 ([1]; pH 6, read-out: IC50): 6000 µM

N[C@@H](COP(=O)(O)O)C(=O)O [Phospho-L-Serine]
Relative Activity [2, 5]: 0.4%

[Cl][Ni][Cl] [NiCl2]
PNPP hydrolysis as percent of that observed for NiCl2 [3, 6]: Maximum hydrolysis

O=P(O)(O)OP(=O)(O)O [Sodium Pyrophosphate]
IC50 [1]: 2500 µM

Cc1cn([C@H]2C[C@H](O)[C@@H](COP(=O)(O)OP(=O)(O)O)O2)c(=O)[nH]c1=O [TDP]
Relative Activity [2, 5]: 3.0%

T-S-T-E-P-Q-pY-Q-P-G-E-N-L [Tyrosine Phosphopeptide]
Relative Activity [2, 7]: 20.0% | Relative Activity ([2]; compound at 0.1 mM final concentration, listed as tyrosine phosphopeptide): 20%

Nc1ncnc2c1ncn2[C@@H]1O[C@H](COP(=O)(O)OP(=O)(O)O)[C@@H](O)[C@H]1O [ADP]
Relative Activity [2, 5]: 1.9%

Nc1ncnc2c1ncn2[C@@H]1O[C@H](CO)[C@@H](OP(=O)(O)O)[C@H]1O [3’-AMP]
Relative Activity [2, 5]: 63.0%

N[C@@H](Cc1ccc(OP(=O)(O)O)cc1)C(=O)O [Phospho-L-Tyrosine]
Relative Activity [2, 5]: 31.5%

O=P(O)(O)OC(CO)CO [β-Glycerol Phosphate]
Relative Activity [2, 5]: 40.0%

Triton X100
concentration inhibiting 50% [1]: 0.32 % v/v | IC50 ([1]; pH 6, read-out: IC50): 5100 µM

O=[N+]([O-])c1ccc(OP(=O)(O)O)cc1 [PNPP]
Km [4, 8]: 90 µM | Vmax [4, 8]: 19.2 pmol/s | turnover number (kcat) ([4]; calculated on the basis of 37 kDa): 4.80 s⁻¹

O=P(O)(O)O[C@H]1O[C@H](CO)[C@H](O)[C@H](O)[C@H]1O [Galactose-1-Phosphate]
Relative Activity [2, 5]: 0.0% | Relative Activity ([2]; compound at 2.0 mM final concentration, listed as galactose-1-phosphate): not hydrolyzed

[Cl][Mn][Cl] [MnCl2]
PNPP hydrolysis as percent of that observed for NiCl2 [3, 6]: 50%

C[C@@H](OP(=O)(O)O)[C@H](N)C(=O)O [Phospho-L-Threonine]
Relative Activity [2, 5]: 4.5%

Nc1ncnc2c1ncn2[C@@H]1O[C@H](COP(=O)(O)O)[C@@H](O)[C@H]1O [AMP]
Relative Activity [2, 5]: 27.0%

OCCS [β-Mercaptoethanol]
IC50 ([1]; pH 6, read-out: IC50): 10000 µM

NCCOP(=O)(O)O [Phosphoethanolamine]
Relative Activity [2, 5]: 1.8%

Cc1cn([C@H]2C[C@H](O)[C@@H](COP(=O)(O)O)O2)c(=O)[nH]c1=O [TMP]
Relative Activity [2, 5]: 27.3%

R-R-A-pS-V-A [Serine Phosphopeptide]
Relative Activity [2, 7]: 0.0% | Relative Activity ([2]; compound at 0.1 mM final concentration, listed as serine phosphopeptide): 0%

O=C(COP(=O)(O)O)[C@@H](O)[C@H](O)[C@H](O)COP(=O)(O)O [Fructose-1,6-bisphosphate]
Relative Activity [2, 5]: 6.6%

Cc1ncc(COP(=O)(O)O)c(C=O)c1O [Pyridoxal Phosphate]
Relative Activity [2, 5]: 35.3%

[Na+].[Na+].[Na+].[O]=[V]([O-])([O-])[O-] [Vanadate, sodium orthovanadate]
IC50 ([1]; pH 6, read-out: IC50): 125 µM | IC50 ([1]; read-out: IC50): 125 µM

O[C@H](CS)[C@@H](O)CS [Dithioerythritol]
IC50 ([1]; pH 6, read-out: IC50): 2000 µM

C[N+](C)(C)CCOP(=O)(O)O [Phosphocholine]
Relative Activity [2, 5]: 2.0%

O=C[C@H](O)[C@H](O)[C@H](O)COP(=O)(O)O [Ribose-5-Phosphate]
Relative Activity [2, 5]: 20.0%

NC(=O)c1ccc[n+]([C@@H]2O[C@H](COP(=O)([O-])OP(=O)(O)OC[C@H]3O[C@@H](n4cnc5c(N)ncnc54)[C@H](OP(=O)(O)O)[C@@H]3O)[C@@H](O)[C@H]2O)c1 [NADP^+]
Relative Activity [2, 5]: 3.7%

Cc1ncc(C[n+]2csc(CCO[P@](=O)(O)OP(=O)(O)O)c2C)c(N)n1 [Thiamine Pyrophosphate]
Relative Activity [2, 5]: 3.6%

[Cl-].[Cl-].[Mg+2] [MgCl2]
PNPP hydrolysis as percent of that observed for NiCl2 [3, 6]: 85%

O=P(O)(O)O[C@H]1[C@H](OP(=O)(O)O)[C@@H](OP(=O)(O)O)[C@H](OP(=O)(O)O)[C@@H](OP(=O)(O)O)[C@H]1OP(=O)(O)O [Phytic acid]
Relative Activity [2, 5]: 0.0% | Relative Activity ([2]; compound at 2.0 mM final concentration, listed as phytic acid): not hydrolyzed

O=c1ccn([C@@H]2O[C@H](COP(=O)(O)O)[C@@H](O)[C@H]2O)c(=O)[nH]1 [UMP]
Relative Activity [2, 5]: 8.7%

O=c1[nH]cnc2c1ncn2[C@@H]1O[C@H](COP(=O)(O)OP(=O)(O)O)[C@@H](O)[C@H]1O [IDP]
Relative Activity [2, 5]: 0.5%

C=C(OP(=O)(O)O)C(=O)O [PEP]
Relative Activity [2, 5]: 7.6%

O=c1ccn([C@@H]2O[C@H](COP(=O)(O)OP(=O)(O)O)[C@@H](O)[C@H]2O)c(=O)[nH]1 [UDP]
Relative Activity [2, 5]: 1.8%

B1: β-Casein: a 30 kDa protein containing 5 serine residues (protein, UniProt P02666 16-224, looked up)
Beta-casein: RELEELNVPGEIVESLSSSEESITRINKKIEKFQSEEQQQTEDELQDKIHPFAQTQSLVYPFPGPIPNSLPQNIPPLTQTPVVVPPFLQPEVMGVSKVKEAMAPKHKEMPFPKYPVEPFTESQSLTLTDVENLHLPLPLLQSWMHQPHQPLPPTVMFPPQSVLSLSQSKVLPVPQKAVPYPQRDMPIQAFLLYQEPVLGPVRGPFPIIV
Relative Activity [2, 7]: 1.2%
